The melting point is the temperature of the solid-liquid transition. One may read the Solubility as the concentration that dissolves in the medium under given conditions.

Where two headings read alike, the source gives them in different places. Where only a bound is given, the exact number is not on record here.

Data on eight compounds can be found in patent publication US7750150B2, “Process for producing acid adduct salt of polyacidic base compound” (Kowa Co., Ltd., priority 2003, dated 2010).

Series [1] can be described thus: Solubility of the acid addition salts. As to conditions: for water solubility: statement in words, background art.
The nature of another series: Oral absorption. As to conditions: statement in words, background art. Type of series: in vivo.
The nature of series [2]: Powder X-ray diffraction (degree of crystallinity). Type of series: physicochemical. An excerpt:
(§1) A powder X-ray diffraction pattern of 2-[4-[2-(benzimidazol-2-ylthio)ethyl]piperazin-1-yl]-N-[2,4-bis(methylthio)-6-methyl-3-pyridyl]acetamide monohydrochloride 0.9-water adduct is illustrated in FIG. 1, and the results of its TG (thermogravimetric analysis)-DSC (differential scanning calorimetry) measurements are shown in FIG. 2. Further, a powder X-ray diffraction pattern of 2-[4-[2-(benzimidazol-2-ylthio)ethyl]piperazin-1-yl]-N-[2,4-bis(methylthio)-6-methyl-3-pyridyl]acetamide tetrahydrochloride 2-water adduct is illustrated in FIG. 3, and the results of its TG-DSC measurements are shown in FIG. 4. A powder X-ray diffraction pattern of 2-[4-[2-(benzimidazol-2-ylthio)ethyl]piperazin-1-yl]-N-[2,4-bis(methylthio)-6-methyl-3-pyridyl]acetamide disulfate 1.5-water adduct is illustrated in FIG. 5, and the results of its TG-DSC measurements are shown in FIG. 6. A powder X-ray diffraction pattern of 2-[4-[2-(benzimidazol-2-ylthio)ethyl]piperazin-1-yl]-N-[2,4-bis(methylthio)-6-methyl-3-pyridyl]acetamide monosulfate 4-water adduct is illustrated in FIG. 7, and the results of its TG-DSC measurements are shown in FIG. 8. A powder X-ray diffraction pattern of 2-[4-[2-(benzimidazol-2-ylthio)ethyl]piperazin-1-yl]-N-[2,4-bis(methylthio)-6-methyl-3-pyridyl]acetamide monosulfate is illustrated in FIG. 9, and the results of its TG-DSC measurements are shown in FIG. 10. A powder X-ray diffraction pattern of 2-[4-[2-(benzimidazol-2-ylthio)ethyl]piperazin-1-yl]-N-[2,4-bis(methylthio)-6-methyl-3-pyridyl]acetamide dimaleate is illustrated in FIG. 11, and the results of its TG-DSC measurements are shown in FIG. 12.

A short description of series [3]: Thermal stability (HPLC purity after storage relative to before storage). Type of series: physicochemical. On the procedure:
(Note) Thermal Stability:
The purity of each acid addition salt of the polyacidic basic compound stored at 80° C. for 10 days was determined by HPLC measurement relative to its purity before the storage with the proviso that the disulfate 1.5-water adduct and the dimaleate were stored at 60° C. for 7 days before their storage at 80° C. for 10 days.

A further series is described as follows: pH of aqueous solution. In kind it is physicochemical.
Series [4] in a line: Hygroscopicity (weight change on storage at 25° C. and 83% relative humidity). As to conditions: weight change after 4 days at 25° C. and 83% relative humidity. Type of series: physicochemical. The method, then: (§2) A weight change of each acid addition salt was measured after storing it for 4 days under conditions of 25° C. and 83% relative humidity. • TG: Thermogravimetric Analysis • DSC: Differential Scanning Calorimetry

Series [5] is described as follows: TG (thermogravimetric analysis). In kind it is physicochemical. As to conditions: weight change on heating.
Excerpt: as §1, §2

The mark [6] stands for this setting: stored at 60° C. for 7 days before storage at 80° C. for 10 days.
Where [7] appears, read: listed as 2-[4-[2-(benzimidazol-2-ylthio)ethyl]piperazin-1-yl]-N-[2,4-bis(methylthio)-6-me.
Where [8] appears, read: listed as tetrahydrochloride 2-water adduct.

Take `Cc1cc(OCC(F)(F)F)c(NC(=O)CN2CCN(CCSc3nc4cc(F)c(F)cc4[nH]3)CC2)c(OCC(F)(F)F)n1.Cl`: the melting point fell in the range of 186 to 187 °C.

In the case of `CSc1cc(C)nc(SC)c1NC(=O)CN1CCN(CCSc2nc3ccccc3[nH]2)CC1` [2-[4-[2-(benzimidazol-2-ylthio)ethyl]piperazin-1-yl]-N-[2,4-bis(methylthio)-6-methyl-3-pyridyl]acetamide], the water solubility entry in series [1] is “too low”. The oral absorption entry in “Oral absorption” was “little well”.

With `CSc1cc(C)nc(SC)c1NC(=O)CN1CCN(CCSc2nc3ccccc3[nH]2)CC1.O=C(O)/C=C\C(=O)O.O=C(O)/C=C\C(=O)O` [Dimaleate, 2-[4-[2-(benzimidazol-2-ylthio)ethyl]piperazin-1-yl]-N-[2,4-bis(methylthio)-6-methyl-3-pyridyl]acetamide dimaleate], the “Powder X-ray” value in [2] was “Low”. Moreover, the Thermal stability in [3] (setting [6]) is recorded as 93.1%. For the same compound, the “pH of 1% aq. Solution” value in the series “pH of aqueous solution” was 2.62. For the same compound, in series [4], the Hygroscopicity is on record as 2%. This compound also came in with a Solubility in the series “physchem” of 15 mg/mL.

Consider `CSc1cc(C)nc(SC)c1NC(=O)CN1CCN(CCSc2nc3ccccc3[nH]2)CC1.CSc1cc(C)nc(SC)c1NC(=O)CN1CCN(CCSc2nc3ccccc3[nH]2)CC1.O.O.O.O=S(=O)(O)O.O=S(=O)(O)O.O=S(=O)(O)O.O=S(=O)(O)O` [Disulfate 1.5-water adduct, 2-[4-[2-(benzimidazol-2-ylthio)ethyl]piperazin-1-yl]-N-[2,4-bis(methylthio)-6-methyl-3-pyridyl]acetamide disulfate 1.5-water adduct], for which the TG entry in series [5] is “No change until”. Moreover, the “Powder X-ray” value in series [2] is “Low”. The compound also displayed a Thermal stability in [3] (setting [6]) of 99.6%. For the same compound, in series [1], the Solubility was above 1000 mg/mL. The “pH of 1% aq. Solution” value in “pH of aqueous solution” is given as 2.00. The Hygroscopicity in series [4] is on record as 10%.

For the compound `CSc1cc(C)nc(SC)c1NC(=O)CN1CCN(CCSc2nc3ccccc3[nH]2)CC1.Cl.O` [Monohydrochloride 0.9-water adduct, 2-[4-[2-(benzimidazol-2-ylthio)ethyl]piperazin-1-yl]-N-[2,4-bis(methylthio)-6-methyl-3-pyridyl]acetamide monohydrochloride 0.9-water adduct], the TG entry in [5] is recorded as “No change until”; in series [5] (setting [7]) it was “without any substantial weight change”. Also, the “Powder X-ray” value in series [2] (setting [7]) is reported as “high degree of crystallinity”. Besides, the Thermal stability was 99.2% in [3] (stored at 80° C. for 10 days) and “excellent in thermal stability” in [3] (stored at 80° C. for 10 days, listed as 2-[4-[2-(benzimidazol-2-ylthio)ethyl]piperazin-1-yl]-N-[2,4-bis(methylthio)-6-me). Besides, the Solubility in [1] worked out at 0.5 mg/mL. Also, the “pH of aq. Solution” value in the series “pH of aqueous solution” (0.05% aq. solution) was 5.2 (0.05%). Moreover, the Hygroscopicity result in series [4] is “None”; in series [4] (setting [7]) it was “no hygroscopicity”.

On to `CSc1cc(C)nc(SC)c1NC(=O)CN1CCN(CCSc2nc3ccccc3[nH]2)CC1.O.O.O.O.O=S(=O)(O)O` [Monosulfate 4-water adduct, 2-[4-[2-(benzimidazol-2-ylthio)ethyl]piperazin-1-yl]-N-[2,4-bis(methylthio)-6-methyl-3-pyridyl]acetamide monosulfate 4-water adduct], for which, in series [5], the TG result is “Decreased 10%”. The compound further displayed a Thermal stability in series [3] (stored at 80° C. for 10 days) of 99.4%. Further, in series [1], the Solubility is 5 mg/mL. Also, the “pH of aq. Solution” value in “pH of aqueous solution” (0.5% aq. solution) is listed as 3.2 (0.5%). For the same compound, in series [4], the Hygroscopicity result is “None”.

On to `CSc1cc(C)nc(SC)c1NC(=O)CN1CCN(CCSc2nc3ccccc3[nH]2)CC1.O=S(=O)(O)O` [Monosulfate, 2-[4-[2-(benzimidazol-2-ylthio)ethyl]piperazin-1-yl]-N-[2,4-bis(methylthio)-6-methyl-3-pyridyl]acetamide monosulfate], for which the TG result in series [5] is given as “No change until”. The “Powder X-ray” value in series [2] is “Low”. Besides, the Solubility in series [1] worked out at 200 mg/mL. Further, in “pH of aqueous solution” (0.5% aq. solution), the “pH of aq. Solution” value is 3.2 (0.5%). In [4], this compound yielded a Hygroscopicity of 15%.

Take `CSc1cc(C)nc(SC)c1NC(=O)CN1CCN(CCSc2nc3ccccc3[nH]2)CC1.Cl.Cl.Cl.Cl.O.O` [Tetrahydrochloride 2-water adduct, 2-[4-[2-(benzimidazol-2-ylthio)ethyl]piperazin-1-yl]-N-[2,4-bis(methylthio)-6-methyl-3-pyridyl]acetamide tetrahydrochloride 2-water adduct]: the TG entry in [5] is recorded as “Gradual removal”. Moreover, the “Powder X-ray” value in series [2] is “Low”; in [2] (setting [8]), “low degree of crystallinity”. In [3] (stored at 80° C. for 10 days), this compound yielded a Thermal stability of 98.5%. In addition, in series [1], the Solubility is above 1000 mg/mL. For the same compound, in [1], the water solubility result is given as “substantially improved”. Further, the “pH of 1% aq. Solution” value in “pH of aqueous solution” is given as 1.97. Further, the Hygroscopicity in series [4] is 10%; in [4] (setting [8]) it was “high hygroscopicity”. In addition, the oral absorption entry in “Oral absorption” is reported as “substantially improved”.
